ChEMBL document CHEMBL3286154, “Oxabicyclooctane-linked novel bacterial topoisomerase inhibitors as broad spectrum antibacterial agents” (ACS Med Chem Lett, 2014)
The source made the active and inactive calls. The calls are words filed in the database; no cut-off is given here.

Legend:
[1] = system: Enterococcus faecium; test: Antibacterial activity against vancomycin-resistant Enterococcus faecium; type: functional
[2] = Unbound fraction in human plasma; type: ADME, cell-free
[3] = system: Staphylococcus aureus; test: Antibacterial activity against quinolone-sensitive Staphylococcus aureus; type: functional
[4] = system: Staphylococcus aureus; test: Antibacterial activity against methicillin-resistant Staphylococcus aureus; type: functional
[5] = Half life in C57BL/6 mouse at 1 mg/kg, iv and 2 mg/kg, po; type: ADME, organism-based; settings: in vivo
[6] = system: Staphylococcus aureus; test: Antibacterial activity against Staphylococcus aureus infected in po dosed ICR mouse assessed as increase in mouse survival after 7 days; type: functional; settings: 168 h
[7] = system: Staphylococcus aureus; test: Antibacterial activity against Staphylococcus aureus infected in iv dosed ICR mouse assessed as increase in mouse survival after 7 days; type: functional; settings: 168 h
[8] = system: Escherichia coli; test: Antibacterial activity against Escherichia coli; type: functional
[9] = system: Enterococcus faecalis; test: Antibacterial activity against Enterococcus faecalis; type: functional
[10] = Volume of distribution at steady state in C57BL/6 mouse at 1 mg/kg, iv and 2 mg/kg, po; type: ADME, organism-based; settings: in vivo, read-out: Vdss
[11] = Unbound fraction in dog plasma; type: ADME, cell-free, Canis lupus familiaris
[12] = system: Pseudomonas aeruginosa; test: Antibacterial activity against Pseudomonas aeruginosa; type: functional
[13] = system: Staphylococcus aureus; test: Antibacterial activity against Staphylococcus aureus in presence of 50% human serum; type: functional, organism-based
[14] = system: Staphylococcus aureus; test: Antibacterial activity against quinolone-resistant Staphylococcus aureus; type: functional
[15] = system: Liver microsome; test: Metabolic stability in dog liver microsomes after 30 to 60 mins; type: ADME, Canis lupus familiaris
[16] = system: Acinetobacter baumannii; test: Antibacterial activity against Acinetobacter baumannii; type: functional
[17] = system: Mus musculus; test: Dose normalized AUC in C57BL/6 mouse at 1 mg/kg, iv and 2 mg/kg, po; type: ADME, organism-based; settings: in vivo
[18] = Oral bioavailability in C57BL/6 mouse at 2 mg/kg; type: ADME, organism-based; settings: in vivo
[19] = Unbound fraction in mouse plasma; type: ADME, cell-free
[20] = system: Staphylococcus aureus; test: Antibacterial activity against methicillin-sensitive Staphylococcus aureus; type: functional
[21] = Plasma clearance in C57BL/6 mouse at 1 mg/kg, iv and 2 mg/kg, po; type: ADME, organism-based
[22] = system: Liver microsome; test: Metabolic stability in human liver microsomes after 30 to 60 mins; type: ADME
[23] = system: Liver; test: Metabolic stability in mouse liver microsomes after 30 to 60 mins; type: ADME
[24] = system: Streptococcus pneumoniae; test: Antibacterial activity against Streptococcus pneumoniae; type: functional
[25] = system: Staphylococcus aureus; test: Antibacterial activity against Staphylococcus aureus in presence of 500 ug/ml sheared DNA; type: functional, organism-based
[26] = Half life in beagle dog at 1 mg/kg, iv and 2 mg/kg, po; type: ADME, organism-based, Canis lupus familiaris; settings: in vivo
[27] = molecular target: DNA gyrase (Staphylococcus aureus, UniProt P0A0K8+P20831); test: Inhibition of Staphylococcus aureus DNA gyrase; type: protein-complex assay
Sequence of DNA gyrase (P0A0K8 whole entry): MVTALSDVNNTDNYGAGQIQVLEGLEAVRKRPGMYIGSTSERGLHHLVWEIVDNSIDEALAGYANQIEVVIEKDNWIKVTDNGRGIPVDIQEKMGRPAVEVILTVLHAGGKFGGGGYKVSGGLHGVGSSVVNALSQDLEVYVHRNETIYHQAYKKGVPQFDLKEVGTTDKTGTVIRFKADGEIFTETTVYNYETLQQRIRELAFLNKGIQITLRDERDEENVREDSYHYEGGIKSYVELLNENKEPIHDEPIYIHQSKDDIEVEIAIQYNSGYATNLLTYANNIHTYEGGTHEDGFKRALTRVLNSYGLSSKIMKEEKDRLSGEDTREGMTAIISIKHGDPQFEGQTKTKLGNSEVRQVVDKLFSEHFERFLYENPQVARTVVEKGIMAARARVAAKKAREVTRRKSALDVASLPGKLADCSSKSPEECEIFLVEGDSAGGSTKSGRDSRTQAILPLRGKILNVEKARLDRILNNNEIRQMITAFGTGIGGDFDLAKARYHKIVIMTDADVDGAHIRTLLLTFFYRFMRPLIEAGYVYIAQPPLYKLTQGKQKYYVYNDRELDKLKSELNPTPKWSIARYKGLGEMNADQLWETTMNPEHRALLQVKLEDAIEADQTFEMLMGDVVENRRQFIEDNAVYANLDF
Sequence of DNA gyrase (P20831 whole entry): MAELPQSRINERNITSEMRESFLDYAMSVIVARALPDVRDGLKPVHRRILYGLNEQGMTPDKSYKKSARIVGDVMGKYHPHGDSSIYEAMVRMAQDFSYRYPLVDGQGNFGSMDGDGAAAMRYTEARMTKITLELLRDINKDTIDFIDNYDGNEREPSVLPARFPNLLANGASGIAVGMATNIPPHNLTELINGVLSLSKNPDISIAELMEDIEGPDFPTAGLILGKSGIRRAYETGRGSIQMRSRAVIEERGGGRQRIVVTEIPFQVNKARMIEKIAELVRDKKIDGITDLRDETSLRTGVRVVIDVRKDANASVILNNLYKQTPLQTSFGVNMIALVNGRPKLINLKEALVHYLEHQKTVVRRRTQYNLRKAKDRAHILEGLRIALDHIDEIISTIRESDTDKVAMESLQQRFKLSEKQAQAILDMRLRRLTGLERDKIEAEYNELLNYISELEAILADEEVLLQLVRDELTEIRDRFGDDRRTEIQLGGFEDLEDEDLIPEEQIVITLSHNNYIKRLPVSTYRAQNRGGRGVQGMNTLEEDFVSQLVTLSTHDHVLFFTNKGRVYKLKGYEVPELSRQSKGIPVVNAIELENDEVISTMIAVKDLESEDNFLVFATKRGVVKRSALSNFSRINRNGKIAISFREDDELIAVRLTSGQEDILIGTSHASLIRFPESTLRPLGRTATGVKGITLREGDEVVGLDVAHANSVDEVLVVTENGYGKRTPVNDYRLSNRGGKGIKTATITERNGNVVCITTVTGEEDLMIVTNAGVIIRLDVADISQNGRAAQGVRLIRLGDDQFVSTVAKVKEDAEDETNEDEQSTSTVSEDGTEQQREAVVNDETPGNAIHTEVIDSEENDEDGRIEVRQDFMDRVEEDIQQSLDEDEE

[28] = Oral bioavailability in beagle dog at 2 mg/kg; type: ADME, organism-based, Canis lupus familiaris; settings: in vivo
[29] = Inhibition of Escherichia coli topoisomerase 4
[30] = Solubility of the compound in PBS at pH 2; type: physicochemical
[31] = system: Haemophilus influenzae; test: Antibacterial activity against Haemophilus influenzae; type: functional
[32] = Solubility of the compound in PBS at pH 7; type: physicochemical
[33] = Volume of distribution at steady state in beagle dog at 1 mg/kg, iv and 2 mg/kg, po; type: ADME, organism-based, Canis lupus familiaris; settings: in vivo, read-out: Vdss
[34] = Inhibition of Escherichia coli gyrase
[35] = system: Canis familiaris; test: Dose normalized AUC in beagle dog at 1 mg/kg, iv and 2 mg/kg, po; type: ADME, organism-based, Canis lupus familiaris; settings: in vivo
[36] = Inhibition of Staphylococcus aureus DNA topoisomerase 4
[37] = system: Staphylococcus aureus; test: Inhibition of DNA synthesis in Staphylococcus aureus using radioligand at 0.001 to 1 ug/ml by scintillation counting
[38] = Plasma clearance in beagle dog at 1 mg/kg, iv and 2 mg/kg, po; type: ADME, organism-based, Canis lupus familiaris
[39] = system: Escherichia coli; test: Antibacterial activity against Escherichia coli infected in po dosed ICR mouse assessed as increase in mouse survival after 7 days; type: functional; settings: 168 h
[40] = system: Staphylococcus aureus; test: Antibacterial activity against Staphylococcus aureus ATCC 29213 assessed as reduction of colony forming units using > 10^5 CFU/ml inoculum at 0.06 to 0.12 ug/ml by time kill experiment; type: functional
[41] = system: Escherichia coli; test: Antibacterial activity against Escherichia coli infected in iv dosed ICR mouse assessed as increase in mouse survival after 7 days; type: functional; settings: 168 h
[42] = system: Moraxella catarrhalis; test: Antibacterial activity against Moraxella catarrhalis; type: functional

With `COc1ccc2ncc(F)c(C[C@@H](O)C34CCC(NCc5ccc6c(n5)NC(=O)CO6)(CC3)CO4)c2n1.Cl` the MIC [1] was 2 µg/mL, the fraction unbound [2] was greater than 0.25 and the MIC [3] was 0.06 µg/mL. The MIC [4] was 0.5 µg/mL, the half-life [5] was 2.15 h and the ED50 [6] was 4.5 mg/kg. For the same compound, the ED50 [7] was 3.5 mg/kg, the MIC [8] was 4 µg/mL and the MIC [9] was 1 µg/mL. For the same compound, the Vd [10] was 4.94 L/kg, the fraction unbound [11] was greater than 0.25 and the MIC [12] was 8 µg/mL. The Activity [13] was “Active”, the MIC [14] was 0.5 µg/mL and the Stability [15] was “Stable”. The MIC [16] was 1 µg/mL, the AUC/dose [17] was 0.68 µM·h/mpk and the bioavailability [18] was 25.3%. It also gave a fraction unbound [19] greater than 0.25, an MIC [20] of 0.06 µg/mL and a clearance [21] of 48.7 mL/min/kg. For the same compound, the Stability [22] was “Stable”, the Stability [23] was “Stable” and the MIC [24] was 0.25 µg/mL. For the same compound, the Activity [25] was “Active”.

`COc1ccc2ncc(F)c(CCC34CCC(NCc5ccc6c(n5)NC(=O)CO6)(CC3)CO4)c2n1.Cl` gave a half-life [26] of 1.85 h, an IC50 [27] of 220 nM and an MIC [1] of 0.5 µg/mL. It also gave a bioavailability [28] greater than 100%, an IC50 [29] of 200 nM and a fraction unbound [2] of less than 0.02. It also gave an MIC [3] of 0.016 µg/mL, a solubility [30] of 20.3 µM and an MIC [31] of 1 µg/mL. For the same compound, the MIC [4] was 0.008 µg/mL, the half-life [5] was 2.24 h and the solubility [32] was less than 0.89 µM. For the same compound, the Vd [33] was 5.36 L/kg, the ED50 [6] was 17 mg/kg and the ED50 [7] was 5.5 mg/kg. The MIC [8] was 1 µg/mL, the MIC [9] was 1 µg/mL and the Vd [10] was 2.22 L/kg. For the same compound, the fraction unbound [11] was less than 0.02, the MIC [12] was 4 µg/mL and the Activity [13] was “inactive”. The MIC [14] was 0.064 µg/mL, the Stability [15] was “Stable” and the MIC [16] was 0.5 µg/mL. For the same compound, the IC50 [34] was 180 nM, the AUC/dose [17] was 0.98 µM·h/mpk and the bioavailability [18] was 71.6%. It also gave a fraction unbound [19] of less than 0.02, an MIC [20] of 0.016 µg/mL and a clearance [21] of 34.6 mL/min/kg. The Stability [22] was “Stable”, the AUC/dose [35] was 0.43 µM·h and the IC50 [36] was 4400 nM. The Stability [23] was “Stable”, the MIC [24] was 0.064 µg/mL and the inhibition [37] was “Active”. For the same compound, the clearance [38] was 39.8 mL/min/kg and the Activity [25] was “inactive”.

`COc1ccc2ncc(F)c(C[C@H](O)C34CCC(NCc5ccc6c(n5)NC(=O)CO6)(CC3)CO4)c2n1.Cl` gave a half-life [26] of 4.49 h, an IC50 [27] of 1020 nM and an MIC [1] of 0.5 µg/mL. It also gave a bioavailability [28] of 40.4%, an IC50 [29] of 500 nM and a fraction unbound [2] greater than 0.25. The MIC [3] was 0.06 µg/mL, the solubility [30] was 200 µM and the ED50 [39] was 85 mg/kg. For the same compound, the log10cfu [40] was greater than 3, the MIC [31] was 0.5 µg/mL and the MIC [4] was 0.06 µg/mL. It also gave a half-life [5] of 1.7 h, a solubility [32] of 154 µM and a Vd [33] of 2.6 L/kg. It also gave an ED50 [6] of 2.2 mg/kg, an ED50 [7] of 2.5 mg/kg and an ED50 [41] of 23 mg/kg. The MIC [8] was 2 µg/mL, the MIC [9] was 0.5 µg/mL and the Vd [10] was 1.61 L/kg. The MIC [42] was 0.015 µg/mL, the fraction unbound [11] was greater than 0.25 and the MIC [12] was 8 µg/mL. The Activity [13] was “Active”, the MIC [14] was 0.25 µg/mL and the Stability [15] was “Stable”. It also gave an MIC [16] of 0.5 µg/mL, an IC50 [34] of 780 nM and an AUC/dose [17] of 0.76 µM·h/mpk. It also gave a bioavailability [18] of 30.1%, a fraction unbound [19] greater than 0.25 and an MIC [20] of 0.02 µg/mL. For the same compound, the clearance [21] was 43.3 mL/min/kg, the Stability [22] was “Stable” and the AUC/dose [35] was 3.57 µM·h. The IC50 [36] was 10400 nM, the Stability [23] was “Stable” and the MIC [24] was 0.05 µg/mL. For the same compound, the clearance [38] was 9.16 mL/min/kg and the Activity [25] was “Active”.
